A short description of the data set: Human HepG2 cell viability assay in 384 well format. The class given is toxicity, cell-based. The arrangement: dose 125 nL, time 70.5 hour; cytotoxicity at 70.5 h: concentration not given beside the values. Conditions: HepG2 cells, read-out: Inhibition.
Take `CCOc1ccc(CN2CC[C@@](C)(O)[C@@H](Cc3ccccc3)C2)cn1`: the cytotoxicity at 70.5 h is -1.83%.
`Cc1cnn(CCNCC(O)COc2ccc(Cl)cc2)c1` (stereo not given): the cytotoxicity at 70.5 h was 2.45%.
As for `Cc1nc(S(=O)(=O)N2CCCCc3ccccc32)cn1C`, the cytotoxicity at 70.5 h stood at 9.73%.
The figure for `Cc1ccc(CN2CC[C@H]3OCC[C@@]3(COCC(=O)N(C)C)C2)s1` is 15.2%; for `COc1cc(NCC(c2ccccn2)N(C)C)ncn1` (stereo not given) it is -5.7%; for `O=C(NCC1CCCO1)c1cc(COc2ccccc2F)[nH]n1` (stereo not given) it is -3.44%.
Turning to `O=C1CCC2(CCN(Cc3cc(F)ccc3Cl)CC2)CN1C1CCCC1`, the cytotoxicity at 70.5 h amounted to 3.22%.
The figure for `CC(C)N(C)CC(=O)Nc1nccn1Cc1ccccc1Cl` is -2.07%; for `CC(C)c1nc2c(n1C)CCN(CC(=O)NCc1ccccn1)C2` it is -0.491%; for `Cc1cc(C)n(-c2ccc(CNCc3cccc(C#N)c3)cn2)n1` it is -12.6%.
Under `CC(Cn1cccn1)NC(=O)CCC(=O)c1cccs1` (stereo not given) stands -11.2%; under `Cc1nc2ccnn2c(C)c1CCC(=O)N1CCSCC1`, -6.09%.
The figure for `CS(=O)(=O)CCCOc1cccc(-n2ccnc2)c1` is -2.41%; for `Cc1ccc(S(=O)(=O)CCC(=O)NCc2nnc3n2CCC3)cc1` it is -3.09%; for `O=C(Nc1c(N2CCCC2)cccc1N1CCCC1)c1ccccn1` it is -12.8%.
For `COc1c(Br)cc(Br)cc1CNC(C)Cn1cccn1` (stereo not given), the cytotoxicity at 70.5 h came out at 16.4%.
As to `Cc1ccoc1C(=O)N1CC[C@H]2O[C@@H](C)C[C@H]2C1`, the cytotoxicity at 70.5 h is -10.2%.
Under `COCCc1noc(CN2CCOC(CN(C)C)C2)n1` (stereo not given) stands -8.08%; under `CC(Nc1cccc2c1OCCO2)C(=O)Nc1ccc(S(N)(=O)=O)cc1` (stereo not given), 25.1%.
In the case of `CCN(CC(=O)Nc1cc(Cl)ccc1C)C(=O)c1cnccn1`, the cytotoxicity at 70.5 h was 0.456%.
The figure for `CCc1nc(CN2CCCN(C(=O)c3c(C)noc3C)CC2)cs1` is -12.9%; for `CC(C)C(CNC(=O)NCc1cc[nH]n1)N1CCOCC1` (stereo not given) it is -5.25%.
For the compound `CCn1cnnc1C1CCN(C(=O)Cc2ccc(OC)c(F)c2)CC1`, the cytotoxicity at 70.5 h was -7.22%.
The figure for `c1cnc(C2CCCN2c2cnccn2)cn1` (stereo not given) is 6.08%; for `O=S(=O)(Nc1ccc(N2CCOCC2)cn1)c1ccc(F)cc1` it is 9.02%; for `Cc1nc(C2CCNCC2)cc(N(C)Cc2cc3cc(F)ccc3[nH]2)n1` it is -1.29%.
Turning to `CCS(=O)(=O)N1CCN(C(=O)NC(C)C)CC2(CC(=O)N(C)C2)C1` (stereo not given), the cytotoxicity at 70.5 h is -7.37%.
With `Cc1cc2c(=O)n3c(nc2s1)CCN(C(=O)c1ccnn1C(C)C)CC3`, the cytotoxicity at 70.5 h is -7.45%.
Consider `COc1ccccc1Oc1ncccc1CNC(=O)[C@@H](C)NC(C)=O`, for which the cytotoxicity at 70.5 h was -0.828%.
The figure for `Cc1nn(C)c2cnn(C(C)C(=O)NCc3cccnc3)c12` (stereo not given) is -5.87%; for `Cn1ncc(NC(=O)Cn2ccc(-c3cccc(F)c3)n2)n1` it is 1.6%; for `O=C1CN(C(=O)C2CN(c3ccc(F)cc3)CCO2)CCN1` (stereo not given) it is -7.29%.
For the compound `CN1CCc2ncc(CNC(=O)c3cccn3C)n2CC1`, the cytotoxicity at 70.5 h was -7.23%.
The figure for `O=C(O)c1cccc(N2C[C@H](NC(=O)C3CCOCC3)[C@@H](C3CC3)C2)n1` is -4.78%; for `CCN(CC)C(=O)CN1CCCC1C(=O)N(C)C` (stereo not given) it is -11.8%; for `CN(C)c1cc(C(=O)N2CCCCCC2)ccn1` it is -8.97%.
Under `CCN1CCN(C(=O)Cc2ccc(S(=O)(=O)C(F)F)cc2)CC1` stands 5.94%; under `N#Cc1cccnc1NCCNC(=O)N1CCCC(N2CCCC2)C1` (stereo not given), 10.7%.
The figure for `COc1ccc(C(C(=O)O)N2CCN(C3CCCC3)CC2)cc1C` (stereo not given) is -1.67%; for `CC(=O)N1CCCC2(CCN(c3nncs3)C2)C1` (stereo not given) it is -4.07%; for `CC(O)CN1CCC(CN(C)CC(=O)NC(C)C)CC1` (stereo not given) it is -1.64%.
As to `CC(C)CN1CCc2[nH]cnc2C12CCN(C(=O)c1cncn1C)CC2`, the cytotoxicity at 70.5 h is -5.88%.
As to `Cc1cc(C)nc(Nc2nccnc2C2CCCN(C(CO)CO)C2)n1` (stereo not given), the cytotoxicity at 70.5 h was -6.39%.
The figure for `O=C1CN(S(=O)(=O)c2ccc(F)cc2)CC(O)CN1CC1CC1` (stereo not given) is -9.49%; for `CSCc1noc(CN2CCCCC2CCc2ccc(O)cc2)n1` (stereo not given) it is -2.26%.
On to `Cc1ccc(NCc2cncc3c2CCN(Cc2ccccn2)C3)nn1`, for which the cytotoxicity at 70.5 h is -13.4%.
The figure for `Cc1cn(CC(=O)NC2CCN(CC3CC3)CC2)c2ccccc12` is -9.9%; for `Cc1cccc(-n2cc(C(=O)N3CCCC(n4cccn4)C3)nn2)c1` (stereo not given) it is -13.8%; for `COC(=O)[C@H](C)NC(=O)Cn1ccc2ccc(F)cc21` it is -1.25%.
Under `O=C(CN1CCc2ccccc2C1)NCc1ccco1` stands 3.48%; under `CNC(=O)c1cnc2n1CCN(Cc1cccnc1OC)C2`, -4.55%; under `Cc1[nH]c2c(F)cccc2c1CC(=O)NCCCc1csc(N)n1`, 5.37%.
As for `CCOc1cc(CN[C@@H]2COC[C@H]2Cc2cc(C)no2)ccc1O`, the cytotoxicity at 70.5 h was -2.12%.
Under `Cc1n[nH]c(C)c1CNc1ccc(-c2nc(C3CC3)no2)cn1` stands -0.0598%; under `CO[C@H]1CO[C@@]2(CCCN(C(=O)N(C)C)C2)C1`, -3.18%; under `C=C(C)COc1cccc(C(=O)N(CC)Cc2nccn2C)c1`, 2.21%.
The figure for `CNc1nc(C2CCCN(C(=O)C(C)(C)OC)C2)nc2c1CN(C)CC2` (stereo not given) is -13.7%; for `c1csc(N2CCCN(c3ncnc4sccc34)CC2)n1` it is 10.8%.
Under `Cn1nnc2c1CCN(Cc1ccoc1)C2COCc1ccccc1` (stereo not given) stands 1.66%.
Turning to `O=c1[nH]c(N2CC(O)C2)nc2c1cnn2-c1ccccc1`, the cytotoxicity at 70.5 h was -9.7%.
Under `CCc1cccc(NS(=O)(=O)c2cc3c(c(C(=O)O)c2)OCCO3)c1` stands 4.16%; under `CCc1cc(N2CCCC(c3noc(CC)n3)C2)ncn1` (stereo not given), -5.13%; under `Cc1ccc(C)c(N2CCN(CC3(O)CCNC3)CC2)c1` (stereo not given), -0.198%.
Under `Cc1c(C(=O)NCCCS(C)(=O)=O)cccc1-c1ccccn1` stands 7.88%.
The figure for `CCC1=N[C@@]2(CC[C@@H]3CN(S(=O)(=O)N(C)C)C[C@@H]32)C(=O)N1CC(C)C` is -3.81%; for `CN(C)c1ccc(C2CCN(c3cnccn3)CC2)nc1` it is 6.87%.
In the case of `O=S1(=O)COCCN1CCOc1ccccc1`, the cytotoxicity at 70.5 h amounted to 17.3%.
Turning to `CC(=O)N1CCN(c2cc(C3CN(C)CCO3)nc(C)n2)CC1` (stereo not given), the cytotoxicity at 70.5 h is -11.6%.
Under `CCC(NC(=O)C(C)C)c1ccccc1C` (stereo not given) stands -5.31%; under `Cn1nnc2cc(C(=O)N3CCC(Nc4cccnn4)CC3)ccc21`, -15.7%.
The figure for `Fc1cccc(-c2c[nH]c([C@@H]3COCCN3C3CCOCC3)n2)c1` is -8.23%.
Under `CC(C)N1CCC(C(=O)N[C@H](C(=O)O)c2cccc(F)c2F)CC1` stands -1.13%; under `CCC(CC)c1cc(C(=O)N2CCCC(n3cncn3)C2)on1` (stereo not given), -1.84%.
With `O=C([C@@H]1CCCO1)N1CCC(Cn2cc(-c3ccsc3)nn2)CC1`, the cytotoxicity at 70.5 h was -7.52%.
As to `COc1cccc(CNC(=O)c2ccccc2-n2cnc(CN)c2)c1`, the cytotoxicity at 70.5 h stood at 17%.
On to `Cc1nn2c(N3CCC(C#N)CC3)cc(-c3ccccc3)nc2c1C`, for which the cytotoxicity at 70.5 h is 1.27%.
The figure for `Cc1cc(CN2CCN(C(=O)C3(C#N)CCCC3)CC2)on1` is 21%.
`CN(C)C(=O)COC[C@@H]1CC[C@H]2[C@H](CCN2c2ccccn2)O1`: the cytotoxicity at 70.5 h came out at 44.1%.
The figure for `CC1CCC(NC(=O)CNC2(c3ccc(Br)cc3)CCOCC2)CC1` (stereo not given) is 4.23%; for `CN(Cc1cnc(N)nc1)C(=O)C1CCN(C(=O)C2CCCC2)CC1` it is -4.62%; for `COCCn1cc2c(n1)C(CNCc1ccco1)OCC2` (stereo not given) it is 22.8%.
The figure for `O=C(Nc1nccs1)NC1CCN(Cc2ccccc2)C1` (stereo not given) is -8.23%; for `Cc1nc(C)c(C(=O)N2Cc3ccccc3OCC2Cn2ccnc2)s1` (stereo not given) it is 2.25%.
Regarding `CNC(=O)NC(=O)C(C)N1CCN(C2CCCC2)CC1` (stereo not given), the cytotoxicity at 70.5 h is -4.93%.
`CC(NC(=O)NCCCN(C)S(C)(=O)=O)c1ccncc1` (stereo not given): the cytotoxicity at 70.5 h was -3.33%.
With `COc1ccccc1CC(=O)N1CCC(NCc2ccncc2)CC1`, the cytotoxicity at 70.5 h is -1.58%.
Under `CCn1ncc2c1NC(=O)CC2c1cnc(NCc2ccccc2)nc1` (stereo not given) stands 14.7%; under `CN(C)c1cc2c(nn1)CCN(C(=O)C1Cc3ccccc3S1)C2` (stereo not given), -8.43%.
Take `COCC(c1cccc(C(F)(F)F)c1)N(C)C(=O)c1cc(C)no1` (stereo not given): the cytotoxicity at 70.5 h worked out at 20%.
Consider `Cc1ncnc2c1CCN(S(=O)(=O)C1CC1)CC2`, for which the cytotoxicity at 70.5 h was -13.2%.
For the compound `CC(=O)c1cccc(OCC(=O)NS(=O)(=O)c2ccc(Br)s2)c1`, the cytotoxicity at 70.5 h was -2.56%.
Regarding `COc1cn(-c2ccccc2)nc1C(=O)NCCN1CCCC(C)C1` (stereo not given), the cytotoxicity at 70.5 h was -7.85%.
Turning to `CN(C)C[C@@H]1CCC[C@@H]2CN(c3cccnc3)C[C@@H]21`, the cytotoxicity at 70.5 h was -1.5%.
Take `Cc1c(C2SCC(=O)Nc3c2c(O)nn3C(C)C)cnn1C` (stereo not given): the cytotoxicity at 70.5 h was -26.6%.
For the compound `CN(C)Cc1cnc(CC2CCN(CCc3ccccc3)CC2)cn1`, the cytotoxicity at 70.5 h stood at 0.387%.
The figure for `COCCN1CCc2cc(C(=O)O)c(-c3ccoc3)nc2CC1` is -12.3%; for `COc1cccc(Cn2cc(C3=CCN(CCO)CC3)cn2)c1` it is -11%; for `Cc1ccc(C2CCCN2S(=O)(=O)N(C)Cc2nccn2C)o1` (stereo not given) it is 5.77%.
As to `Cn1[nH]c(CNc2cccc(Cl)c2)nc1=O`, the cytotoxicity at 70.5 h was -0.326%.
The figure for `CN1CSC[C@H]1C(=O)N1CCC(Cc2ccccc2F)CC1` is -4.33%.
